# Reference: patent US7091243B2, “Anti-irritants” (Croda, Inc., priority 2001, dated 2006)
# Columns and labels:
# [1] = system: MDCK (Kidney, Canine) strain NBL-2 cells; assay: Trans-Epithelial Permeability (TEP) Assay, intracellular leakage of sodium fluorescein; format: cell-based; conditions: for anti-irritating activity: 3% ester in shampoo base, Table 7; for anti-irritating activity, comparison between esters: referring to Table 4, 5% ester
# Excerpt: The test methodology for measuring the irritation potential of alkoxylated esters is Trans-Epithelial Permeability (TEP) Assay. The TEP Assay measures intracellular leakage of a suitable marker reagent, such as sodium fluorescein, through cells that were exposed to irritant-containing compositions. Smaller leakage indicates lower degree of cell damage. If the cells are exposed to an irritant-containing composition with and without an anti-irritant, the magnitude of reduction in the intracellular leakage measures the anti-irritating ability of the anti-irritant. For additional discussion of the TEP Assay, see Tchao, R., Trans-Epithelial Permeability of Fluorescein In Vitro As An Assay To Determine Eye Irritants, Progress in In Vitro Toxicology, A M Goldberg ed., 6:271–283 (1988); Drewitt-Barlow, B., McPherson, J., Broyd, J. and Williamson, 2000. No Tears for Baby. Global Cosmetic Industry, (October, 2000): 16–20; Burke, J. and Joseph, L. B., 2000, In Vitro Analysis of the Irritation Mitigating Properties of PEG-150 Pentaerythrityl Tetrastearate, Society of Cosmetic Chemists, 2000 Technology Showcase, NY, N.Y., all of which are incorporated by reference herein.
# The ingredients were dissolved in distilled water and pH was adjusted to 6.8 to 7.2. Sodium laurel ether sulfate (triethoxylated) is a known irritant. The irritation potentials of the compositions I, II, III and IV were measured using the TEP assay as follows.
# MDCK (Kidney, Canine) strain NBL-2 purchased from American Type Culture Collection (CCL 34) were cultured under standard conditions. Three days prior to experimentation the cells were subcultured onto Corning 6.5 mm Transwell porous cell culture inserts at 1×10^5 cells per insert. Cells are grown to confluence in 3 days. The inserts were washed 5 times with phosphate buffered saline (PBS) immediately before testing. All reagents were made prior to experimentation, with the exception of the final dilutions with a saline solution, which were prepared on the day of the experiment.
# The compositions I, II, III, and IV were diluted to 1:50 and 1:100 with Hanks Buffered Saline Solution (HBSS). For example, to prepare a 1:50 dilution of the test composition I, 1 part of the test composition I was mixed with 49 parts of HBSS. The diluted samples were placed on the ventral side of the insert (in duplicate) in direct contact with the cells for 15 minutes. Two inserts with HBSS were used as the negative control and inserts without cells were used as references of 100% leakage. After application of the test article, the inserts were washed with large amounts of PBS.
# Sodium fluorescein was added directly to the cell monolayer and 1 ml of HBSS was placed in the well below. After 30 minutes of incubation at room temperature triplicate 200 μl samples were removed from the well and the optical density (OD) of the well fluid was determined. The experimental OD was then compared to the OD of 100% leakage reference (filter without cells), and provided a measure of irritation potential of the tested compositions.
# The reductions in the irritation potential were calculated as the percentage of the absolute reduction relative to the control formulation (control is taken as 100%, and the percentages of reduction are calculated as 100% minus (observed leakage)/(observed leakage of control)×100%).
# [2] = system: Epiocular™ Tissue Model (OCL-200); assay: Epiocular Tissue Model (OCL-200) cell survival, MTT readout; format: cell-based; conditions: 5% ester added to 10% SLS in PBS
# Description: The following example illustrates the discovery of the anti-irritation activity of certain alkoxylated esters. A test composition A and a control composition B were prepared. The test composition A contained 5% of Di-PPG-3-PEG-4 Myristyl Ether Adipate, an alkoxylated (tripropoxy-tetraethoxy) diester of tripropoxy-tetraethoxy myristyl alcohol and adipic acid, and 10% of sodium laurel sulfate (SLS), a known irritant, in Phosphate Buffered Saline (PBS) at pH 6.8–7.2. The control composition B contained 10% SLS in PBS at the same pH without the alkoxylated ester. A separate solution of PBS (without SLS and the ester) was used as a negative control solution. The testing was carried out on Epiocular™, Tissue Model (OCL-200), from MatTek Corporation. Epiocular™ inserts were equilibrated overnight in assay media. Test composition A and B, and the negative control solution were then separately placed in direct contact with the cells. For each test substance, the progress of cell death was measured at 1, 5, and 10 minutes. The negative control inserts were exposed to phosphate buffered saline (PBS) for 10 minutes. The inserts were washed with PBS, equilibrated in Eagle's Minimal Essential Medium (EMEM) prior to incubation in MTT (3-[4,5-Dimethylthiazol-2-yl]-2,5-diphenyltetrazolium bromide), and extracted in isopropyl alcohol overnight. […]
Substance,anti-irritating activity [1],"anti-irritating activity, comparison between esters [1]",effect on cell death [2],"reduction in the irritation potential of the shampoo ([1]; 5% ester in J&J Baby Shampoo, Table 9)"
Di-PPG-2-PEG-10 Myristyl Adipate,show anti-irritating activity,greater anti-irritating activity than Di-PPG-2-PEG-10 Lauryl Adipate,,
Di-PPG-2-PEG-10 Steareth Ether Adipate [Di-PPG-2-PEG-10 Steareth Adipate],,greater anti-irritating activity than Di-PPG-2-PEG-10 Myristyl Adipate,,
Di-PPG-3-PEG-4 Cetyl Ether Adipate,"show anti-irritating activity, with the magnitude of activity being substantially greater",,,
Di-PPG-3-PEG-4 Myristyl Ether Adipate,,,substantially reduces cell death,dramatic reduction in the irritation potential
